The values that follow come from patent US7989502B2, “Intranasal delivery of modafinil” (SRI International, priority 2009, dated 2011).

One assay deals with healthy male subjects. The experiment in a line: Intranasal modafinil in chronically sleep deprived humans (simulated military operation, 18 h continuous work). The class given is in vivo, human. Particulars: 2, 10, 50 and 200 ug groups, VIANASE or OPTINOSE, given 9 h into the work period; versus LME-only and systemically-administered modafinil controls. The method, then: 4. Efficacy of our intranasal drug delivery in chronically sleep deprived humans is also readily confirmed using established methods. Our preferred protocol is based on the results of a series of experiments that tested the treatment efficacy of a hypnotic-stimulant combination to maintain sleep quality, performance, and alertness (Batéjat, et al., Aviat Space Environ Med. 2006 May; 77(5):515-25). Here, healthy male subjects are given zolpidem then allowed to sleep for 6 h prior to being subjected to a simulated military operation of 18 h continuous work. Modafinil (2, 10, 50 and 200 ug dosage treatment groups) is administered using (a) VIANASE electronic atomizer (Bothell, Wash.) or (b) OPTINOSE nasal delivery system (Oslo, Norway) 9 h into the work period. The effects of drugs on sleep-wake behavior (EEG recordings), cortical activation (Critical Flicker Frequency test) and performance levels (reaction time, memory search, attention, dual task, computerized Stroop tests) are monitored.

The subject of another assay is male Sprague Dawley rats. As to the kind of experiment: Intranasal drug delivery snort model, EEG/EMG sleep-wake behavior in rats. The assay is classed as in vivo, rat. As to the method: Formulation of Intranasal Drugs. Modafinil (Sigma) was solubilized using LME comprised of equal amounts of olive oil and phosphatidyl serine sonicated in succinate buffer, pH 8; modafinil concentrations 0.2 and 2 mg/ml. Control rats received either saline alone or lipid emulsion in succinate buffer, pH 8
Animals and surgery. Anesthetized male Sprague Dawley rats (250-350 g) were implanted with sleep recording electrodes to monitor electroencephalographic (EEG) and electromyographic (EMG) activities. A femoral vein catheter was also implanted and dorsally extended subcutaneously to exit at the posterior end of the EEG/EMG implant. The rats were individually housed in a controlled environment (12 h lights on/off; lights on, 8 am) with access to food and water ad libitum. The animals were allowed to recover for approximately 7-10 days following surgery and habituated to the recording chambers. Baseline behavior was continuously recorded for 48 to 60 h prior to experiment initiation and for at least 24 h post drug administration. Rats were sacrificed by pentobarbital administration (200 mg/kg, i.v.) into the femoral catheter without handling the animal, Greco et al., Neuroscience. 1999; 93(4):1369-74; Vazquez et al., J Cell Biochem. 2008 Dec. 15; 105(6):1472-84.
Intranasal drug delivery—snort model. Three hours into the lights on period, each rat was anesthetized with ˜3% isoflurane in O2 and placed on its back. The head and neck of the rat remained flat and horizontal throughout the entire procedure to prevent any drug from draining down the back of the throat. Reflexes were monitored periodically and anesthetic level was reduced to ˜1.5% isoflurane in O2 for anesthesia maintenance. Each drug was given in 6-7 ul administered with a manual pipette every 2 minutes into alternating nostrils (total volume=50 ul). Two minutes after the last drop was administered, the rat was removed from anesthesia, reconnected to the tethering cable and placed in the recording chamber. The effect of intranasal drug delivery on sleep-wake behavior was monitored for 24 h post-intranasal drug delivery.
Results. Rats awakened within one minute post modafinil administration. Control rats awoke within 3-5 minutes after termination of anesthesia. EEG and EMG activity during wakefulness, slow wave sleep (SWS), and rapid eye movement (REM) sleep were captured digitally, and subsequently scored manually in 10 sec epochs, averaged into one minute bins and represented graphically by hour for approximately 5 to 8 h post drug delivery. Representative individual hypnograms show the wake-promoting effects via intranasal delivery directly to the CNS. Modafinil induced wakefulness in rats at a 100-fold lower dose via our intranasal route than what has been previously published using traditional routes of administration (ie. i.v., oral).
We designed protocols to further optimize concentrations of sleep and wake promoting drugs for intranasal delivery. In exemplary experiments, the drugs are administered to rats in the following concentrations: Modafinil: 0.2 mg/ml (n=3), 0.1 mg/ml (n=3), 0 (LME only, n=3), and the rats instrumented and tested as detailed above.
Sleep Scoring and Statistical Analyses. EEG/EMG recordings are scored using SleepSign™ for Animals (Kissei Comtec, Irvine, Calif.), manually verified for accuracy and stored to disk. Waking is identified by the presence of desynchronized EEG readings and high EMG activity. SWS is identified by high amplitude slow waves together with a low EMG tone relative to waking. REM sleep is identified by the presence of regular theta activity coupled with low EMG relative to SWS. REM sleep is scored only when it follows at least a 15 s episode of SWS. All sleep-wake parameters are analyzed for each hour of the recording periods, then averaged to yield 24 h baseline estimates. A similar analysis is performed prior to and post intranasal drug administration. […]

A further assay deals with rats. As to the kind of experiment: Chronic sleep deprivation paradigm, EEG/EMG recordings and roto-rod performance. The assay is classed as in vivo, rat. The note with it: rats deprived of sleep 6 h on 3 consecutive days. As to the method: In our chronic sleep deprivation paradigm rats are deprived of sleep for 6 h on 3 consecutive days starting at the beginning of the lights on period, when the pressure to sleep is maximal. The sleep deprivation begins with the administration of modafinil and is immediately followed by roto-rod testing. EEG/EMG recordings resumes once the rats are returned to the cage. If needed, the rats are kept awake for the remainder of the deprivation period by gentle handling. At the end of the sleep deprivation, the rats are again subjected to roto-rod testing. The sleep deprivation protocol is executed for 3 consecutive days. On the third day, half of the rats are sacrificed immediately following the sleep deprivation period. A second group of rats are sacrificed after 1-2 h of recovery sleep (RS). […]
In this protocol, the intranasal delivery of modafinil is assayed by two behavioral indicies—EEG/EMG recordings of sleep-wakefulness and performance (wheel running, roto-rod assay). […] The EEG/EMG data is analyzed as detailed above. For the roto-rod testing, the amount of time each rat spends on the wheel is analyzed and compared to control. Qualitative and quantitative analysis sets are generated and descriptive statistical comparisons and two-way ANOVA with post hoc multiple comparisons are used to evaluate changes in behavior/wheel running as a function of the day and drug, assuming equal variances.
For orientation: In the rotarod test animals must keep their balance on a rotating rod.

Take `NC(=O)C[S+]([O-])C(c1ccccc1)c1ccccc1` (stereo not drawn) [Modafinil]: the “performance and alertness throughout the 18 h work period” value in the assay on healthy male subjects is “maintain elevated performance and alertness over LME-only negative controls and even over systemically-administered modafinil positive-controls”. Also, the “effective dose, body-weight equivalent” value in the assay on male Sprague Dawley rats (2.5 ug to a 350 g rat) was 7.14 µg/kg. The molecule further registered a translated human dose in the assay on male Sprague Dawley rats (based on a human weighing 70 kg, from the rat effective dose) of 0.5 mg. The molecule further returned an effective dose administered with male Sprague Dawley rats (in 50 ul of LME to a 350 g rat, intranasal) of 2.5 µg. Besides, the “fold lower dose inducing wakefulness via intranasal route than published for traditional routes (i.v., oral)” value with male Sprague Dawley rats (rat, intranasal LME) is listed as 100 fold. Further, in the assay on male Sprague Dawley rats (rat, intranasal snort delivery in LME under isoflurane anesthesia, control rats awoke within 3-5 minutes after termination of anesthesia), the “time to awakening post modafinil administration” value is listed as “one”. The “effective concentration of modafinil in the lipid microemulsion” value in the assay with male Sprague Dawley rats (rat, intranasal, 50 ul of LME) turned out to be 0.05 mg/mL. Also, the “effect of attempting to deliver an intranasal dose comparable to that given orally” value with male Sprague Dawley rats (rat, under isoflurane anesthesia) is “the excitatory effects overcame the anesthesia and the animals woke up”. In the assay with rats, the “effectiveness of intranasal delivery under chronic stressful conditions” value is on record as “Our results confirm the effectiveness of intranasal delivery of modafinil under chronic stressful conditions”.
